Measured values: the kinase profiling compilation of Christmann-Franck et al. (2016)

What was measured:
Conditions in all cases: compound 10.0 µM
[1] = molecular target: MELK (human) (UniProt Q14680)
[2] = molecular target: BMX (human) (UniProt P51813)
[3] = molecular target: EPHB4 (human) (UniProt P54760)
[4] = molecular target: STK4 (human) (UniProt Q13043)
[5] = molecular target: GSK3A (human) (UniProt P49840)
[6] = molecular target: PAK6 (human) (UniProt Q9NQU5)
[7] = molecular target: DMPK (human) (UniProt Q09013)
[8] = molecular target: CDK4 CCND3 (human) (UniProt P11802+P30281)
Sequence of CDK4 CCND3 (human) (P11802 whole entry, looked up): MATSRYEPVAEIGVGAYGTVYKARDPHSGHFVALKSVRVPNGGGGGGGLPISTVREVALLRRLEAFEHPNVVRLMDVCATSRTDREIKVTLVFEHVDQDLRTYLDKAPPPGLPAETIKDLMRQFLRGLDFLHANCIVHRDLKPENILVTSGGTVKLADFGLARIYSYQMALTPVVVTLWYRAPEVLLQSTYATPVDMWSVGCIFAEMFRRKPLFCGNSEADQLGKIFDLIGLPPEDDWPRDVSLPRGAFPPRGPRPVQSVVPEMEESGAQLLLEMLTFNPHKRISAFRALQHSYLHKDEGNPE
Sequence of CDK4 CCND3 (human) (P30281 whole entry, looked up): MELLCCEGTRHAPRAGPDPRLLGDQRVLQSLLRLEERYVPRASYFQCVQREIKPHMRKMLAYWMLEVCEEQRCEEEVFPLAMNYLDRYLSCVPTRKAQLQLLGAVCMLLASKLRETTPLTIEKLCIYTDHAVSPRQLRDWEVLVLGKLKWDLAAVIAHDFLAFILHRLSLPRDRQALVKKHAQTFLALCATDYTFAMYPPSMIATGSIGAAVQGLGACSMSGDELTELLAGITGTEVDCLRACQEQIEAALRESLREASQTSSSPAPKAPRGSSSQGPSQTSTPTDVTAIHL

[9] = molecular target: ACVR1 (human) (UniProt Q04771)
[10] = molecular target: FGR (human) (UniProt P09769)
[11] = molecular target: LTK (human) (UniProt P29376)
[12] = molecular target: CAMKK1 (human) (UniProt Q8N5S9)
Sequence of CAMKK1 (human) (Q8N5S9 whole entry, looked up): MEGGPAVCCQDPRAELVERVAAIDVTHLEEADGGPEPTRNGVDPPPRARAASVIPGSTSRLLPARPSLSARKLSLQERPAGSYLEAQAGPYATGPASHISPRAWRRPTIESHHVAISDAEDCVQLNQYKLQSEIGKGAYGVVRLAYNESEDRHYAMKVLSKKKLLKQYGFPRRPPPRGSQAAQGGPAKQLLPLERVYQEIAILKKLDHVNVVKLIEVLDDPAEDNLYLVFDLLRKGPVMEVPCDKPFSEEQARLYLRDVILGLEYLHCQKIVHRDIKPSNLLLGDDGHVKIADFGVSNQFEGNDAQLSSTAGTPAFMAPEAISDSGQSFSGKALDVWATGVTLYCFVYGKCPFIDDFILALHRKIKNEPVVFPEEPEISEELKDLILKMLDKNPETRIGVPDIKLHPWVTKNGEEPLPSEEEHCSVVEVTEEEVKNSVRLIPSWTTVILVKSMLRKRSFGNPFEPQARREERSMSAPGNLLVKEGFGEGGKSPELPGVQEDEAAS

[13] = molecular target: PAK7 (human) (UniProt Q9P286)
Sequence of PAK7 (human) (Q9P286 whole entry, looked up): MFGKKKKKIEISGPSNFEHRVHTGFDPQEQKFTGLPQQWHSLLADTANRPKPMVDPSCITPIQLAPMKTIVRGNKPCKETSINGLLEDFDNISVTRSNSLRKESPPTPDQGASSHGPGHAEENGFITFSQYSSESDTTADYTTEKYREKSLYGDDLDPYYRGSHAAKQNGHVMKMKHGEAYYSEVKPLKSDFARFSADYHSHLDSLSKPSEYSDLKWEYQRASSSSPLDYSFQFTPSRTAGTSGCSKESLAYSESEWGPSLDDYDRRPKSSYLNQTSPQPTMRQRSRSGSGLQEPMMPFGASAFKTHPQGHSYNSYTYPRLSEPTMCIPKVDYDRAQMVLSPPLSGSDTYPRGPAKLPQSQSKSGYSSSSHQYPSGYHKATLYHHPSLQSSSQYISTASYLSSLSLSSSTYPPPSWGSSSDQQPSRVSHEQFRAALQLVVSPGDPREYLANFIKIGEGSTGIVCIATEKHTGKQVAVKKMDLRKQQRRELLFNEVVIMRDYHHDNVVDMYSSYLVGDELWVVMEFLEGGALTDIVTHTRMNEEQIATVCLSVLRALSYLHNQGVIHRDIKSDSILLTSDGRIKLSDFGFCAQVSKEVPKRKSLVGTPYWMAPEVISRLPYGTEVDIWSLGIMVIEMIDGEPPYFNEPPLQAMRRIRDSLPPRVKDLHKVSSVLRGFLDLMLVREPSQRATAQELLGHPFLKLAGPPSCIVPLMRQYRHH

[14] = molecular target: TSSK1B (human) (UniProt Q9BXA7)
[15] = molecular target: RAF1 (human) (UniProt P04049)
[16] = molecular target: IKBKB (human) (UniProt O14920)
[17] = molecular target: TEK (human) (UniProt Q02763)
[18] = molecular target: PBK (human) (UniProt Q96KB5)
[19] = molecular target: SRMS (human) (UniProt Q9H3Y6)
[20] = molecular target: ABL2 (human) (UniProt P42684)
[21] = molecular target: FER (human) (UniProt P16591)
[22] = molecular target: PRKX (human) (UniProt P51817)
[23] = molecular target: PKN1 (human) (UniProt Q16512)
[24] = molecular target: FGFR2 (human) (UniProt P21802)
[25] = molecular target: CHEK2 (human) (UniProt O96017)
Sequence of CHEK2 (human) (O96017 whole entry, looked up): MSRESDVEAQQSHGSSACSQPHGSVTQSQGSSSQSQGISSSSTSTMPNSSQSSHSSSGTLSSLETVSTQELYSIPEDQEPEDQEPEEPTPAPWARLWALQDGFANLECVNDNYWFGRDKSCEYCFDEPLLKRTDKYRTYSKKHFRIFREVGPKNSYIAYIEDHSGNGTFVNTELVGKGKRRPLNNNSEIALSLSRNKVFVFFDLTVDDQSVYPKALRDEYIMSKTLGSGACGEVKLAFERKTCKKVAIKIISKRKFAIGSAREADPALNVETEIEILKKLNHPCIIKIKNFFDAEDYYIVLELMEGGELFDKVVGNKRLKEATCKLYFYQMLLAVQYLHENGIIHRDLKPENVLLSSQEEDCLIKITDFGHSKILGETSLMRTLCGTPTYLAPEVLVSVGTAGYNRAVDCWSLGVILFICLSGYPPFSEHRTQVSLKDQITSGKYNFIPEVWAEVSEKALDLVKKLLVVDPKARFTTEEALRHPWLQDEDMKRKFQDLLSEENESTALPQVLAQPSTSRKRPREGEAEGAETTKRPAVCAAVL

[26] = molecular target: WNK2 (human) (UniProt Q9Y3S1)
[27] = molecular target: MAP4K2 (human) (UniProt Q12851)
[28] = molecular target: TYK2 JH1 JH2 (human) (UniProt P29597)
[29] = molecular target: NEK11 (human) (UniProt Q8NG66)
Sequence of NEK11 (human) (Q8NG66 whole entry, looked up): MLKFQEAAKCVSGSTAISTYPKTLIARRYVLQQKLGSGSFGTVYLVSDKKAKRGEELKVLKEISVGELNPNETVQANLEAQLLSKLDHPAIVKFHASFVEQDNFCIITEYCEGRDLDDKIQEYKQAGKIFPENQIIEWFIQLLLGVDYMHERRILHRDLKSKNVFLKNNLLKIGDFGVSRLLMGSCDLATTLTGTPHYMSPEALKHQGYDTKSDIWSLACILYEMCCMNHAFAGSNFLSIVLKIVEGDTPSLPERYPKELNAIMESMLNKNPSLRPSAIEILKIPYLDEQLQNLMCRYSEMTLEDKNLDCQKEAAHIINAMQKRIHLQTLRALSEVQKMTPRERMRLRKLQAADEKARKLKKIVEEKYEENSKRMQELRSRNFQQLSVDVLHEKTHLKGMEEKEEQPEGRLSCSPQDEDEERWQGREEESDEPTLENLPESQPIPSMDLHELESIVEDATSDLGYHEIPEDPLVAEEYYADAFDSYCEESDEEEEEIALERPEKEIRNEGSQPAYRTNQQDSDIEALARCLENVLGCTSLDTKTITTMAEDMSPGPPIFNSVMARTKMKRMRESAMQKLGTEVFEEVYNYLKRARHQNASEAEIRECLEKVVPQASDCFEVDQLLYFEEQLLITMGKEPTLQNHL

[30] = molecular target: AURKA (human) (UniProt O14965)
Sequence of AURKA (human) (O14965 whole entry, looked up): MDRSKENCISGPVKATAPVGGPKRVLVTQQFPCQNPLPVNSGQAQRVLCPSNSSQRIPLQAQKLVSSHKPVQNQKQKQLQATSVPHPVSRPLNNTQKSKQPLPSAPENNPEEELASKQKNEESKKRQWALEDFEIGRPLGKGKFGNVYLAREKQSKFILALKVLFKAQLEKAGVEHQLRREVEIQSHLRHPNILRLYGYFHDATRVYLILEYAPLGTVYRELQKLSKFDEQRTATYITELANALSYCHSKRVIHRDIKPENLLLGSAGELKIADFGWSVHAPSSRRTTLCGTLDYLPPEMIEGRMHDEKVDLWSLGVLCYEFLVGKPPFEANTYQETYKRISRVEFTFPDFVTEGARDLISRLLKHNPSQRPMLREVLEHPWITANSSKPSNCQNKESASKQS

[31] = molecular target: PHKG2 (human) (UniProt P15735)
Sequence of PHKG2 (human) (P15735 whole entry, looked up): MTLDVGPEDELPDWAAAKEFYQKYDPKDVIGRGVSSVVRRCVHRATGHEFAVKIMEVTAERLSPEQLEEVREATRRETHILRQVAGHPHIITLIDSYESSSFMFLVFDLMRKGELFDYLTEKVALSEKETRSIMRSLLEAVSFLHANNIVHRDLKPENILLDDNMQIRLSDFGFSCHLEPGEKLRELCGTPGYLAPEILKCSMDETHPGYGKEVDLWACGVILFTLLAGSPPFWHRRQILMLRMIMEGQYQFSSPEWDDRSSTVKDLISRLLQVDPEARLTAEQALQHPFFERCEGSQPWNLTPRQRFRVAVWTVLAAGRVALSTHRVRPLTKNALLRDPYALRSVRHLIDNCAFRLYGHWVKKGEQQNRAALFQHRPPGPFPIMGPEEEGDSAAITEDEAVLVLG

[32] = molecular target: ERBB2 (human) (UniProt P04626)
[33] = molecular target: INSR (human) (UniProt P06213)

Sequence of GSK3A (human) (P49840 whole entry, looked up): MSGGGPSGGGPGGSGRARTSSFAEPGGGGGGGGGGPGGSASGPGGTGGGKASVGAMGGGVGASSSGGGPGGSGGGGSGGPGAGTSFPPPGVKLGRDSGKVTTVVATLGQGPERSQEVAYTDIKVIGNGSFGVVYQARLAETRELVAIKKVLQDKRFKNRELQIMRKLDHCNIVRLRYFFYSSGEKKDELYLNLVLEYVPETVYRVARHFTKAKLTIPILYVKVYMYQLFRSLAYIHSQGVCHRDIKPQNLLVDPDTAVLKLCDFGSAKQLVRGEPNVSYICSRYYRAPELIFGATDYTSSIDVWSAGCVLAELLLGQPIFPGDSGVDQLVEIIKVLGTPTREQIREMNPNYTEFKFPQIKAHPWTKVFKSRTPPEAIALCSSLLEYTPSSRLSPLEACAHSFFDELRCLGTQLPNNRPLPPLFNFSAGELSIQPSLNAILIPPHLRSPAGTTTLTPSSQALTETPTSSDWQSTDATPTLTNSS
Sequence of MELK (human) (Q14680 whole entry, looked up): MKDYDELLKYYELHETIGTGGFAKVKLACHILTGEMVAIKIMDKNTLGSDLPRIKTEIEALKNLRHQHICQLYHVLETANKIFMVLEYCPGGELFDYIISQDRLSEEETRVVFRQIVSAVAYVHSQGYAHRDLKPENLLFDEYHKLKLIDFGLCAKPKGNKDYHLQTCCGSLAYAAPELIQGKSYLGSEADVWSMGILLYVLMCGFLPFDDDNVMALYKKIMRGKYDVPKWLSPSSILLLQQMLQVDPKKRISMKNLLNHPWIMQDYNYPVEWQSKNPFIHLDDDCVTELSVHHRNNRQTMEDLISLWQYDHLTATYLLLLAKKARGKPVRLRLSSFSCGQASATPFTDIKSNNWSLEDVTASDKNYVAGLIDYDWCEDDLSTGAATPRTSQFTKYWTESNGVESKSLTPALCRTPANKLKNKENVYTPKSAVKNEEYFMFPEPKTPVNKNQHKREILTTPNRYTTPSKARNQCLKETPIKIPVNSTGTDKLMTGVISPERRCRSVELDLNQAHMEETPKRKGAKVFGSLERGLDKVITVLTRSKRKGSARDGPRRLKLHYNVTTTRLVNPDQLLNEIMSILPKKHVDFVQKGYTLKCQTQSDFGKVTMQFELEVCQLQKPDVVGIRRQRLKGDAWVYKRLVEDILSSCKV

Work on `CC[C@H](C)n1cc(C)c2c(C(=O)NCc3c(C)cc(C)[nH]c3=O)cc(-c3ccc(N4CCNCC4)nc3)cc21` yielded a residual activity [1] of 79.5%, a residual activity [2] of 102% and a residual activity [3] of 95%. For the same molecule, the residual activity [4] was 97%, the residual activity [5] was 102% and the residual activity [6] was 102%. For the same molecule, the residual activity [7] was 100%, the residual activity [8] was 104% and the residual activity [9] was 92.5%. It also gave a residual activity [10] of 91%, a residual activity [11] of 102% and a residual activity [12] of 96%. The residual activity [13] was 102%, the residual activity [14] was 102% and the residual activity [15] was 97%. It also gave a residual activity [16] of 102%, a residual activity [17] of 95.5% and a residual activity [18] of 94%. For the same molecule, the residual activity [19] was 93.5%, the residual activity [20] was 88% and the residual activity [21] was 85.5%. It also gave a residual activity [22] of 80.5%, a residual activity [23] of 89% and a residual activity [24] of 98.5%. For the same molecule, the residual activity [25] was 71%, the residual activity [26] was 93% and the residual activity [27] was 91.5%. It also gave a residual activity [28] of 91.5%, a residual activity [29] of 107% and a residual activity [30] of 88%. The residual activity [31] was 93.5%, the residual activity [32] was 100% and the residual activity [33] was 95.5%.
